Measurements reported in patent publication US20220265817A1, “THERAPEUTIC COMPOSITIONS AND METHODS FOR TREATING HEPATITIS B” (priority 2017, published 2022).
[UNA] = unlocked nucleic acid; m = 2'-O-methyl; r = 2'-OH (RNA)

Columns and labels:
HBV genome = test: siRNA IC50 (Table A); parameters: species or system Hepatitis B virus
[1] = system: HBV cccDNA-dependent precore RNA in DESHAe82 cells; test: DESHAe82 / DE19 cell culture system, cccDNA-derived precore RNA by qRT-PCR, MacSynergy II; assay type: cell-based, Hepatitis B virus; conditions: ETV μM: 0.01, 0.0032, 0.001, 0.0003, 0.0001, 3E−05, 0
Experimental: In vitro combination studies were conducted using a modification of the assay system described in Cai et al (Antimicrobial Agents Chemotherapy, 2012. Vol 56(8):4277-88). A previously developed HepDE19 cell culture system (Guo et al. J. Virology (2007) 81(22): 12472-12484) supports HBV DNA replication and cccDNA formation in a tetracycline (Tet)-regulated manner, and produces a detectable reporter molecule which is dependent upon the production and maintenance of cccDNA.
In the HepDE19 cell culture system, the reporters are the precore RNA and its cognate protein product, the secreted HBV “e antigen” (HBeAg). In HepDE19 cells, precore RNA and HBeAg are only produced from the cccDNA circular template, because the ORF of HBeAg and its 5′ RNA leader are separated between the opposite ends of the integrated viral genome, and only become contiguous with the formation of cccDNA. Although an assay based on the HepDE19 cell culture system is effective for determining activity, the results of high throughput screening may be complicated because the HBeAg ELISA cross reacts with a viral HBeAg homologue, which is the core antigen (HBcAg) expressed largely in a cccDNA-independent fashion in HepDE19 cells. To overcome this complication, an alternative cell culture system (designated herein as DESHAe82 cell culture system and described in PCT/EP/2015/06838) has been developed which includes an in-frame HA epitope tag in the N-terminal coding sequence of HBeAg in the transgene of DESHAe82 cells, without disrupting any cis-element critical for HBV replication, cccDNA transcription, and HBeAg secretion.
A chemiluminescence ELISA assay (CLIA) for the detection of HA-tagged HBeAg with HA antibody serving as capture antibody and […] has been developed, eliminating the contaminating signal from HBcAg. […] In addition, a protocol for quantitative reverse transcription and polymerase chain reaction (qRT-PCR) that is specific for detection of precore RNA in either DE19 or DESHAe82 cells was developed and is also used for the detection of the cccDNA-dependent mRNA (precore RNA) that is translated to produce HBeAg or HA-HBeAg.
To test the compound combinations, DESHAe82 or DE19 cells (as indicated in examples) were plated in 96 well tissue-culture treated microtiter plates in DMEM/F12 medium supplemented with 10% fetal bovine serum+1% penicillin-streptomycin with Tet, and incubated in a humidified incubator at 37° C. and 5% CO2 overnight. […] The two inhibitors were tested both singly as well as in combinations in a checkerboard fashion such that each test concentration of inhibitor A was combined with each test concentration of inhibitor B to determine their combination effects on inhibition of cccDNA formation and expression. Untreated negative control samples (0.5% DMSO or media only) were included on each plate in multiple wells. Following a 9 day-incubation, media was removed and cells were subjected to RNA extraction to measure the cccDNA-dependent precore mRNA level. Total cellular RNAs were extracted using a 96-well format total RNA isolation kit ([…]-NAGEL, Cat. 740466.4) by following the instruction of manufacturer (vacuum manifold processing, two more extra washes of Buffer RA4). RNA samples were eluted in RNAase-free water. Quantitative real-time RT-PCR was performed with a Roche LightCycler480 and RNA Master Hydrolysis probe (Catalog number 04991885001, Roche) using primers and conditions for specific detection of cccDNA-dependent precore RNA. GAPDH mRNA levels were also detected by standard methods and used to normalize the precore RNA levels.

Compound | IC50 (HBV genome) | also measured
8m: siRNA duplex SEQ ID NO: 15 and 16 targeting the HBV genome (chain 1 GCUCAGUUUACUAGUGCCAUU; chain 2 UGGCACUAGUAAACUGAGCUU; chain 1: sugars from the 5' end [UNA]rmrrmrrrrrmrmrrrrr[UNA][UNA], backbone not given here; chain 2: sugars from the 5' end r14 m1 r4 [UNA]2, backbone not given here) [Compound 8m] | 240 pM | –
9m: siRNA duplex SEQ ID NO: 17 and 18 targeting the HBV genome (chain 1 AGGUAUGUUGCCCGUUUGUUU; chain 2 ACAAACGGGCAACAUACCUUU; chain 1: sugars from the 5' end [UNA]mrmrrrmrrrrrmrmrrr[UNA][UNA], backbone not given here; chain 2: sugars from the 5' end rrrrrrmrrrrrrrmrrrm[UNA][UNA], backbone not given here) [Compound 9m] | 130 pM | –
10m: siRNA duplex SEQ ID NO: 19 and 20 targeting the HBV genome (chain 1 GCCGAUCCAUACUGCGGAAUU; chain 2 UUCCGCAGUAUGGAUCGGCUU; chain 1: sugars from the 5' end [UNA]rrmrmrrrrrrmmrmmrr[UNA][UNA], backbone not given here; chain 2: sugars from the 5' end rrrrrrrmrrrrmrrrrmr[UNA][UNA], backbone not given here) [Compound 10m] | 340 pM | –
11m: siRNA duplex SEQ ID NO: 21 and 22 targeting the HBV genome (chain 1 GCCGAUCCAUACUGCGGAAUU; chain 2 UUCCGCAGUAUGGAUCGGCUU; chain 1: sugars from the 5' end [UNA]rrmrmrrrrrrmmrmmrrr[UNA], backbone not given here; chain 2: sugars from the 5' end rrrrrrrmrrrrmrrrrmrrr, backbone not given here) [Compound 11m] | 310 pM | –
12m: siRNA duplex SEQ ID NO: 23 and 24 targeting the HBV genome (chain 1 GCCGAUCCAUACUGCGGAAUU; chain 2 UUCCGCAGUAUGGAUCGGCUU; chain 1: sugars from the 5' end [UNA]rrmrmrrrrrrmmrrmrrr[UNA], backbone not given here; chain 2: sugars from the 5' end rrrrrrrmrrrrmrrrrmrrr, backbone not given here) [Compound 12m] | 160 pM | –
13m: siRNA duplex SEQ ID NO: 25 and 26 targeting the HBV genome (chain 1 GCCGAUCCAUACUGCGGAAUU; chain 2 UUCCGCAGUAUGGAUCGGCUU; chain 1: sugars from the 5' end [UNA]rrmrmrrrrrrmmrrmrr[UNA][UNA], backbone not given here; chain 2: sugars from the 5' end rrrrrrrmrrrrmrrrrmr[UNA][UNA], backbone not given here) [Compound 13m] | 200 pM | –
14m: siRNA duplex SEQ ID NO: 27 and 28 targeting the HBV genome (chain 1 GCUCAGUUUACUAGUGCCAUU; chain 2 UGGCACUAGUAAACUGAGCUU; chain 1: sugars from the 5' end [UNA]rmrrmrrrrrmrmrrrrrr[UNA], backbone not given here; chain 2: sugars from the 5' end r14 m1 r6, backbone not given here) [Compound 14m] | 160 pM | –
15m: siRNA duplex SEQ ID NO: 29 and 30 targeting the HBV genome (chain 1 CUGGCUCAGUUUACUAGUGUU; chain 2 CACUAGUAAACUGAGCCAGUU; chain 1: sugars from the 5' end [UNA]mmrrmrrrrrmrrrrrrr[UNA][UNA], backbone not given here; chain 2: sugars from the 5' end r14 m1 r4 [UNA]2, backbone not given here) [Compound 15m] | 170 pM | –
C[C@@H](NS(=O)(=O)c1ccc(F)c(C(=O)Nc2ccc(F)c(F)c2)c1)c1cncs1 [Compound 4] | – | Average percent inhibition versus negative control (precore RNA) ([1]; Compound 4 0.032 μM): −49.48%; Average percent inhibition versus negative control (precore RNA) ([1]; Compound 4 0.100 μM): 66.78%; Average percent inhibition versus negative control (precore RNA) ([1]; Compound 4 0.317 μM): 94.67%; Average percent inhibition versus negative control (precore RNA) ([1]; Compound 4 1.001 μM): 93.92%; Average percent inhibition versus negative control (precore RNA) ([1]; Compound 4 3.165 μM): 97.88%; Average percent inhibition versus negative control (precore RNA) ([1]; Compound 4 10 μM): 97.53%
